In US7977387B2, “Aminobenzophenone compounds” (Leo Pharma A/S, priority 2003, dated 2011):

Experiments:
[1] = system: IL-1β; experiment: Inhibition of IL-1β secretion in LPS stimulated peripheral blood mononuclear cells; assay type: cell-based; details: PBMC; LPS stimulated human peripheral blood mononuclear cells, 18 hours, ELISA; read-out: The median inhibition concentration (IC50, nM) of IL-1β
Description: (§1) To study the effect of compounds of the present invention in vitro, the inhibition of IL-1β and TNF-α secretion was determined using the following procedure:
(§2) Cytokine production was measured in the media from lipopolysaccharide (LPS) stimulated peripheral blood mononuclear cells. The mononuclear cells were isolated from human peripheral blood by Lymphoprep® (Nycomed, Norway) fractionation and suspended in RPMI 1640 (growth medium) with foetal calf serum (FCS, 2%), at a concentration of 5×10^5 cells/ml. The cells were incubated in 24-well tissue culture plates in 1 ml aliquots. Test compounds were dissolved in dimethylsulfoxide (DMSO, 10 mM) and were diluted with the medium. Compounds were added to the cells for 30 minutes, then LPS ([…] final concentration) was added. The plates were incubated for 18 hours, and the concentration of IL-β and TNF-α in the medium was determined by enzyme-linked immunosorbent assays. The median inhibitory concentrations (IC50) of the compounds were calculated.

[2] = system: TNF-α; experiment: Inhibition of TNF-α secretion in LPS stimulated peripheral blood mononuclear cells; assay type: cell-based; details: PBMC; LPS stimulated human peripheral blood mononuclear cells, 18 hours, ELISA; read-out: The median inhibition concentration (IC50, nM) of TNF-α
Description: as §1, §2

Row | Structure (SMILES) | IC50 [1] | IC50 [2]
1 | Cc1ccc(C(=O)NCCO)cc1C(=O)c1ccc(Nc2cccc(F)c2)cc1Cl [Compound 193, 3-[2-Chloro-4-(3-fluoro-phenylamino)-benzoyl]-N-(2-hydroxy-ethyl)-4-methyl-benzamide] | 4 nM | 2.5 nM
2 | COc1ccc(C(=O)NCCO)cc1C(=O)c1ccc(Nc2ccc(F)cc2)cc1Cl [Compound 194, 3-[2-Chloro-4-(4-fluoro-phenylamino)-benzoyl]-N-(2-hydroxy-ethyl)-4-methoxy-benzamide] | 0.6 nM | 0.3 nM
3 | COc1ccc(C(=O)NCCO)cc1C(=O)c1ccc(Nc2ccccc2)cc1Cl [Compound 195, 3-(2-Chloro-4-phenylamino-benzoyl)-N-(2-hydroxy-ethyl)-4-methoxy-benzamide] | 2.2 nM | 1 nM
4 | COc1ccc(C(=O)NCCF)cc1C(=O)c1ccc(Nc2ccc(F)cc2)cc1Cl [Compound 197, 3-[2-Chloro-4-(4-fluoro-phenylamino)-benzoyl]-N-(2-fluoro-ethyl)-4-methoxy-benzamide] | 3.2 nM | 1.8 nM
5 | COc1ccc(C(=O)NCCF)cc1C(=O)c1ccc(Nc2ccccc2)cc1Cl [Compound 201, 3-(2-Chloro-4-phenylamino-benzoyl)-N-(2-fluoro-ethyl)-4-methoxy-benzamide] | 7.9 nM | 3.2 nM
6 | COc1ccc(C(=O)NCC(N)=O)cc1C(=O)c1ccc(Nc2ccccc2)cc1Cl [Compound 203, N-Carbamoylmethyl-3-(2-chloro-4-phenylamino-benzoyl)-4-methoxy-benzamide] | 6.3 nM | 3.2 nM
7 | COCCC(=O)Nc1ccc(C)c(C(=O)c2ccc(Nc3ccc(F)cc3F)cc2Cl)c1 [Compound 241, N-{3-[2-Chloro-4-(2,4-difluoro-phenylamino)-benzoyl]-4-methyl-phenyl}-3-methoxy-propionamide] | 1.1 nM | 0.3 nM
8 | CCC(=O)Nc1ccc(C)c(C(=O)c2ccc(Nc3ccc(F)cc3F)cc2Cl)c1 [Compound 242, N-{3-[2-Chloro-4-(2,4-difluoro-phenylamino)-benzoyl]-4-methyl-phenyl}-propionamide] | 1.4 nM | 0.5 nM
9 | COCCOCC(=O)Nc1ccc(C)c(C(=O)c2ccc(Nc3ccc(F)cc3F)cc2Cl)c1 [Compound 243, N-{3-[2-Chloro-4-(2,4-difluoro-phenylamino)-benzoyl]-4-methyl-phenyl}-2-(2-methoxy-ethoxy)-acetamide] | 2.8 nM | 1.3 nM
10 | Cc1ccc(NC(=O)CCN2CCOCC2)cc1C(=O)c1ccc(Nc2ccc(F)cc2F)cc1Cl [Compound 244, N-{3-[2-Chloro-4-(2,4-difluoro-phenylamino)-benzoyl]-4-methyl-phenyl}-3-morpholin-4-yl-propionamide] | 1.3 nM | 0.5 nM
11 | Cc1ccc(NC(=O)CCO)cc1C(=O)c1ccc(Nc2ccc(F)cc2F)cc1Cl [Compound 245, N-{3-[2-Chloro-4-(2,4-difluoro-phenylamino)-benzoyl]-4-methyl-phenyl}-3-hydroxy-propionamide] | 3.5 nM | 0.9 nM
12 | Cc1ccc(NC(=O)c2ccccc2O)cc1C(=O)c1ccc(Nc2ccc(F)cc2F)cc1Cl [Compound 247, N-{3-[2-Chloro-4-(2,4-difluoro-phenylamino)-benzoyl]-4-methyl-phenyl}-2-hydroxy-benzamide] | 5.6 nM | 1.4 nM
13 | Cc1ccc(NC(=O)CC2NC(=O)NC2=O)cc1C(=O)c1ccc(Nc2ccc(F)cc2F)cc1Cl (centres unmarked) [Compound 248, N-{3-[2-Chloro-4-(2,4-difluoro-phenylamino)-benzoyl]-4-methyl-phenyl}-2-(2,5-dioxo-imidazolidin-4-yl)-acetamide] | 1 nM | 0.7 nM

More lines, now with the values ahead:

Row | IC50 [1] | IC50 [2] | Structure (SMILES)
14 | 1.6 nM | 1.1 nM | Cc1ccc(NC(=O)C2CC(=O)NC(=O)N2)cc1C(=O)c1ccc(Nc2ccc(F)cc2F)cc1Cl (centres unmarked) [Compound 249, 2,6-Dioxo-hexahydro-pyrimidine-4-carboxylic acid {3-[2-chloro-4-(2,4-difluoro-phenylamino)-benzoyl]-4-methyl-phenyl}-amide]
15 | 0.6 nM | 0.6 nM | Cc1ccc(NC(=O)CCS(C)(=O)=O)cc1C(=O)c1ccc(Nc2ccc(F)cc2F)cc1Cl [Compound 252, N-{3-[2-Chloro-4-(2,4-difluoro-phenylamino)-benzoyl]-4-methyl-phenyl}-3-methanesulfonyl-propionamide]
16 | 2.2 nM | 1 nM | CCOC(=O)CNC(=O)Nc1ccc(C)c(C(=O)c2ccc(Nc3ccc(F)cc3F)cc2Cl)c1 [Compound 261, (3-{3-[2-Chloro-4-(2,4-difluoro-phenylamino)-benzoyl]-4-methyl-phenyl}-ureido)-acetic acid ethyl ester]
17 | 2 nM | 0.6 nM | COc1cccc(NC(=O)Nc2ccc(C)c(C(=O)c3ccc(Nc4ccc(F)cc4F)cc3Cl)c2)c1 [Compound 262, 1-{3-[2-Chloro-4-(2,4-difluoro-phenylamino)-benzoyl]-4-methyl-phenyl}-3-(3-methoxy-phenyl)-urea]
18 | 1 nM | 0.3 nM | CCOC(=O)CCNC(=O)Nc1ccc(C)c(C(=O)c2ccc(Nc3ccc(F)cc3F)cc2Cl)c1 [Compound 265, 3-(3-{3-[2-Chloro-4-(2,4-difluoro-phenylamino)-benzoyl]-4-methyl-phenyl}-ureido)-propionic acid ethyl ester]
19 | 0.4 nM | 0.2 nM | C=CCNC(=O)Nc1ccc(C)c(C(=O)c2ccc(Nc3ccc(F)cc3F)cc2Cl)c1 [Compound 267, 1-Allyl-3-{3-[2-chloro-4-(2,4-difluoro-phenylamino)-benzoyl]-4-methyl-phenyl}-urea]
20 | 0.8 nM | 0.6 nM | CCNC(=O)Nc1ccc(C)c(C(=O)c2ccc(Nc3ccc(F)cc3F)cc2Cl)c1 [Compound 269, 1-{3-[2-Chloro-4-(2,4-difluoro-phenylamino)-benzoyl]-4-methyl-phenyl}-3-ethyl-urea]
21 | 1 nM | 0.4 nM | CCCCNC(=O)Nc1ccc(C)c(C(=O)c2ccc(Nc3ccc(F)cc3F)cc2Cl)c1 [Compound 271, 1-Butyl-3-{3-[2-chloro-4-(2,4-difluoro-phenylamino)-benzoyl]-4-methyl-phenyl}-urea]
22 | 3.2 nM | 1.4 nM | Cc1ccc(NC(=O)NCCc2ccccc2)cc1C(=O)c1ccc(Nc2ccc(F)cc2F)cc1Cl [Compound 272, 1-{3-[2-Chloro-4-(2,4-difluoro-phenylamino)-benzoyl]-4-methyl-phenyl}-3-phenethyl-urea]
23 | 5 nM | 0.3 nM | Cc1ccc(NC(=O)NC(C)C)cc1C(=O)c1ccc(Nc2ccc(F)cc2F)cc1Cl [Compound 275, 1-{3-[2-Chloro-4-(2,4-difluoro-phenylamino)-benzoyl]-4-methyl-phenyl}-3-isopropyl-urea]
24 | 2.5 nM | 0.8 nM | Cc1ccc(NC(=O)OCc2ccccc2)cc1C(=O)c1ccc(Nc2ccc(F)cc2F)cc1Cl [Compound 277, {3-[2-Chloro-4-(2,4-difluoro-phenylamino)-benzoyl]-4-methyl-phenyl}-carbamic acid benzyl ester]
25 | 0.6 nM | 0.5 nM | CCOC(=O)Nc1ccc(C)c(C(=O)c2ccc(Nc3ccc(F)cc3F)cc2Cl)c1 [Compound 279, {3-[2-Chloro-4-(2,4-difluoro-phenylamino)-benzoyl]-4-methyl-phenyl}-carbamic acid ethyl ester]
